The results in this text go back to PubChem BioAssay (NCI).

Where “and” joins values, the source holds several entries; their conditions need not be identical. Equal values may be shown once.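 The compound was tested at five concentrations on cells cultured in 96-well plates, with a 48-hour exposure period. GI50: concentration for 50% inhibition of growth. TGI denotes the concentration required for complete inhibition of growth.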

Some test systems named below: MDA-N; KM20L2 colon; LXFL 529 NSCLC; SNB-78 CNS; DMS 114 small cell lung; HOP-18 NSCLC; M19-MEL melanoma; RXF-631 renal; XF 498 CNS; P388 leukemia; P388/ADR leukemia; SN12K1 renal.
Experiment in all cases: NCI tumour cell line growth inhibition, 48 h

On to `COc1cc([N+](=O)[O-])c(S(=O)(=O)O)cc1-n1nc(-c2ccccc2)n[n+]1-c1cc(S(=O)(=O)[O-])c([N+](=O)[O-])cc1OC`, for which the TGI in the assay with MDA-N was above 100 µM.
For the compound `COc1ccc2c3c([nH]c2c1[N+](=O)[O-])C(C)N(C(=O)/C=C/c1ccccc1)CC3` (stereo unspecified), the TGI in the assay on KM20L2 colon, in the assay on LXFL 529 NSCLC and with SNB-78 CNS was above 100 µM throughout.
On to `Nc1nc(N)c2ncn(Cc3c(Cl)cccc3Cl)c2n1`, for which, in the assay on MDA-N, the TGI is above 100 µM.
Regarding `CC(=O)N1C(=O)C(=O)c2cc(Cl)ccc21`, the TGI with DMS 114 small cell lung, in the assay on HOP-18 NSCLC, in the assay on LXFL 529 NSCLC, in the assay with M19-MEL melanoma, in the assay on RXF-631 renal and with SNB-78 CNS was above 100 µM in each case. This compound came in with a TGI in the assay with XF 498 CNS of 65.2 µM.
In the case of `CCCCCCCCCCSS(=O)(=O)c1ccc(C)cc1`, the TGI was 30.4 µM in the assay with DMS 114 small cell lung; 43.1 µM with HOP-18 NSCLC; 33.3 µM in the assay on KM20L2 colon; 27.6 µM in the assay on LXFL 529 NSCLC; 26.6 µM in the assay on M19-MEL melanoma; 17.2 µM in the assay on RXF-631 renal. Besides, the TGI amounted to 29.5 µM in the assay on SNB-78 CNS and 26 µM in the assay on XF 498 CNS.
For `CC(=O)[CH-]C(=O)c1ccccc1.CC(=O)[CH-]C(=O)c1ccccc1.CC(C)CCCC(C)[C@H]1CCC2[C@@H]3CCC4C[C@@H]([O-])CC[C@]4(C)C3CC[C@@]21C.CC(C)CCCC(C)[C@H]1CCC2[C@@H]3CCC4C[C@@H]([O-])CC[C@]4(C)C3CC[C@@]21C.Cl.[Ti+4]` (stereo partly specified), the GI50 in the assay on HOP-18 NSCLC, in the assay with KM20L2 colon, with LXFL 529 NSCLC and in the assay with M19-MEL melanoma was above 25 µM in each case. Also, the TGI with HOP-18 NSCLC, with KM20L2 colon, with LXFL 529 NSCLC and in the assay with M19-MEL melanoma was above 25 µM throughout.
As for `C=CCCC12CCCC(=O)C1Sc1ccc3ccccc3c12` (stereo unspecified), the TGI in the assay with HOP-18 NSCLC is 61.2 µM; in the assay with LXFL 529 NSCLC, 33.2 µM; in the assay with M19-MEL melanoma it was above 100 µM; with RXF-631 renal, 34 µM; in the assay on SNB-78 CNS, 60.8 µM.
For `CC(C)[C@H](COC(C)(C)C)N=CN1CSc2ccccc21`, the TGI in the assay with DMS 114 small cell lung was 62.1 µM; with KM20L2 colon, above 100 µM; in the assay on LXFL 529 NSCLC, above 100 µM; in the assay with M19-MEL melanoma it was above 100 µM; in the assay with RXF-631 renal it was above 100 µM; in the assay on SNB-78 CNS, 81.5 µM. The TGI in the assay with XF 498 CNS turned out to be 47.8 µM.
Regarding `COc1cc2c(cc1OCCN1C(=O)c3cccc4cccc(c34)C1=O)N=C[C@@H]1CCCN1C2=O`, in the assay with MDA-N, the GI50 was 20.3 µM; the TGI is 14.8 µM and 45.8 µM.
In the assay with MDA-N, `S=C(S)NCCCn1ccnc1` displayed a TGI above 100 µM.
On to `O=C(CN1C(=O)c2ccccc2C1=O)OC1C=CCCC1` (stereo unspecified), for which the TGI in the assay on HOP-18 NSCLC, with KM20L2 colon, in the assay on LXFL 529 NSCLC, in the assay with M19-MEL melanoma and with SNB-78 CNS was above 100 µM each time.
In the assay on MDA-N, `CN(C)c1ccc2c(SCC(=O)OCC(=O)[C@@]3(O)CC[C@H]4[C@@H]5CCC6=CC(=O)C=C[C@]6(C)[C@H]5C(=O)C[C@@]43C)c3ccc(N(C)C)cc3nc2c1` showed a TGI above 100 µM.
In the case of `COC(=O)/C=C\C1C(C(=O)OC)C2(C(=O)OC)CCC1(C(=O)OC)N2` (stereo unspecified), the TGI with HOP-18 NSCLC is 28.9 µM; in the assay with KM20L2 colon, above 61.8 µM; in the assay with LXFL 529 NSCLC, 19.3 µM; in the assay on M19-MEL melanoma, 27.9 µM; in the assay with RXF-631 renal, 48.7 µM; in the assay on SNB-78 CNS, 35.9 µM. The TGI in the assay with XF 498 CNS came to 34.3 µM.
`COc1ccc2c(CCNS(=O)(=O)c3ccccc3)c(C(C)=O)[nH]c2c1[N+](=O)[O-]`: the TGI with KM20L2 colon, in the assay with LXFL 529 NSCLC, in the assay on RXF-631 renal and in the assay on SNB-78 CNS was above 100 µM each time.
Consider `CC[O+]=c1cccc2ssnc1-2`, for which the TGI in the assay on HOP-18 NSCLC, in the assay on KM20L2 colon, with LXFL 529 NSCLC, in the assay with M19-MEL melanoma, with RXF-631 renal and in the assay with SNB-78 CNS was above 100 µM each time. In the assay on XF 498 CNS, this compound returned a TGI of 66.9 µM.
With `CC(=O)C1C(=O)C(=O)N(c2ccc(Cl)cc2C)C1=O` (stereo unspecified), the TGI with DMS 114 small cell lung, with HOP-18 NSCLC, with KM20L2 colon, with LXFL 529 NSCLC, in the assay on M19-MEL melanoma and with RXF-631 renal was above 100 µM throughout. Besides, the TGI in the assay on SNB-78 CNS is above 100 µM.
As to `CCC1(c2ccncc2)CCC(=O)NC1=O` (stereo unspecified), the TGI with DMS 114 small cell lung, in the assay on KM20L2 colon, in the assay on LXFL 529 NSCLC, in the assay with M19-MEL melanoma, in the assay with RXF-631 renal and in the assay with SNB-78 CNS was above 100 µM in each case. In the assay on XF 498 CNS, this compound returned a TGI above 100 µM.
Regarding `CC1=C(CC/C(C)=C/CCC2(C)CCC([C@H](C)C(=O)O)OO2)C(C)(C)CCC1` (stereo partly specified) (tested in a mixture with another compound), the TGI in the assay with DMS 114 small cell lung, with KM20L2 colon, in the assay on LXFL 529 NSCLC, in the assay on M19-MEL melanoma and with SNB-78 CNS was above 100 µM throughout.
`S=C1SC2(CCCCCC2)NC2=C1CCCCC2` yielded a TGI with MDA-N above 100 µM.
As for `C/C(=C\c1ccccc1)C(O)S(=O)(=O)O` (stereo unspecified), the TGI in the assay with DMS 114 small cell lung, in the assay with HOP-18 NSCLC, with KM20L2 colon, with LXFL 529 NSCLC and in the assay with M19-MEL melanoma was above 100 µM in each case.
In the case of `CCN(CC)CCNc1ccc(CO)c2sc3ccccc3c(=O)c12`, the TGI in the assay on DMS 114 small cell lung was 27.5 µM and 23 µM; with HOP-18 NSCLC it was 29.7 µM and 24.6 µM; in the assay with KM20L2 colon, 18.4 µM and 22.6 µM; with LXFL 529 NSCLC, 31.6 µM; in the assay on M19-MEL melanoma it was 26.5 µM and 31.6 µM; in the assay on MDA-N, 16.6 µM. The TGI was 8.68 µM in the assay on P388 leukemia; 31.3 µM with P388/ADR leukemia; 17.4 µM in the assay with SN12K1 renal; 35.1 µM and 28.4 µM in the assay on SNB-78 CNS; 24.5 µM in the assay with XF 498 CNS. Also, in the assay with HOP-18 NSCLC, the GI50 was 3.02 µM and 11.4 µM.
As to `C=CC1(C)/C(=N\O)C(C)(CC)C(=O)N1O` (stereo unspecified), the TGI with DMS 114 small cell lung, in the assay on HOP-18 NSCLC, in the assay with LXFL 529 NSCLC, in the assay on M19-MEL melanoma, with RXF-631 renal and in the assay on SNB-78 CNS was above 100 µM each time. Also, the TGI in the assay with XF 498 CNS was above 100 µM.
Turning to `COc1cccc(C(=O)O)c1Cc1cccc2ccccc12`, the TGI in the assay on HOP-18 NSCLC, in the assay on KM20L2 colon, in the assay with LXFL 529 NSCLC and with M19-MEL melanoma was above 100 µM throughout.
As for `COC(=O)/C1=C/C2CC(/C=C(/c3ccccc3)C(=O)O1)C2`, the TGI in the assay on DMS 114 small cell lung was 55.8 µM; with HOP-18 NSCLC it was above 100 µM; with M19-MEL melanoma, above 100 µM; with XF 498 CNS, 45.2 µM.
For `CP(=O)(CCSc1ccccc1)c1ccccc1` (stereo unspecified), the TGI in the assay on DMS 114 small cell lung, in the assay on HOP-18 NSCLC, with KM20L2 colon, with LXFL 529 NSCLC, in the assay on M19-MEL melanoma and with SNB-78 CNS was above 100 µM each time. The compound further returned a TGI with XF 498 CNS above 100 µM.
As to `O=S(O)CCCCSSCCCCS(=O)(O)=S`, the TGI in the assay with DMS 114 small cell lung is above 100 µM; in the assay with HOP-18 NSCLC, above 100 µM; in the assay with KM20L2 colon, above 100 µM; with LXFL 529 NSCLC, 61.2 µM; in the assay with M19-MEL melanoma, above 100 µM; with RXF-631 renal it was above 100 µM. The TGI was above 100 µM in the assay on SNB-78 CNS and 33.2 µM in the assay on XF 498 CNS.
Turning to `c1ccc2c(c1)[Se]c1ccccc1[Se]2`, the TGI with DMS 114 small cell lung was above 100 µM; with HOP-18 NSCLC, 98.6 µM; with KM20L2 colon, above 100 µM; in the assay on LXFL 529 NSCLC it was above 100 µM; in the assay with M19-MEL melanoma, above 100 µM; in the assay with SNB-78 CNS it was above 100 µM. For the same compound, the TGI in the assay with XF 498 CNS is above 100 µM.
In the case of `CC(C)c1cccc2sc(NC(=O)C(=O)CC(=O)c3ccc(F)cc3)nc12`, the TGI with DMS 114 small cell lung, in the assay on KM20L2 colon, in the assay with LXFL 529 NSCLC, in the assay on M19-MEL melanoma, in the assay with RXF-631 renal and in the assay with SNB-78 CNS was above 100 µM in each case. In addition, in the assay with XF 498 CNS, the TGI was above 100 µM.
As to `CN1NC(c2ccccc2)=C(C#N)C(=O)CC1c1ccccc1Cl` (stereo unspecified), the TGI in the assay with DMS 114 small cell lung, in the assay on HOP-18 NSCLC, in the assay with LXFL 529 NSCLC, in the assay with RXF-631 renal, in the assay on SNB-78 CNS and with XF 498 CNS was above 100 µM each time.
Regarding `CCC(=O)[O-].CCC(=O)[O-].N.N.N.N.[Co+3].[O-][Cl+3]([O-])([O-])[O-]`, the GI50 in the assay with KM20L2 colon, in the assay with LXFL 529 NSCLC and with SNB-78 CNS was above 100 µM each time. For the same compound, the TGI with KM20L2 colon, in the assay with LXFL 529 NSCLC and in the assay on SNB-78 CNS was above 100 µM in each case.
As for `Cc1cc(Cl)ccc1OCC(=O)Oc1c(Cl)c(Cl)c(Cl)c(Cl)c1Cl`, the TGI in the assay with MDA-N worked out at 74.5 µM.
For `CCCC(=O)C(CC)/C(CCC(=O)N(Cc1ccccc1)Cc1ccccc1)=N/NC(=O)C[N+](C)(C)C` (stereo unspecified), the TGI in the assay with DMS 114 small cell lung, with HOP-18 NSCLC, with KM20L2 colon, in the assay on LXFL 529 NSCLC, in the assay on M19-MEL melanoma and with SNB-78 CNS was above 100 µM each time. In the assay with XF 498 CNS, the TGI is above 100 µM.
As to `NC(N)=NS(=O)(=O)c1ccc(NC(=O)c2ccc(Cl)c3c(Nc4ccc(S(=O)(=O)N=C(N)N)cc4)c4ccccc4nc23)cc1`, the TGI in the assay on DMS 114 small cell lung, with HOP-18 NSCLC, in the assay with KM20L2 colon, in the assay on LXFL 529 NSCLC, in the assay on M19-MEL melanoma and with RXF-631 renal was above 100 µM throughout. This compound returned a TGI in the assay on SNB-78 CNS above 100 µM.
For `CCOc1ccccc1N=C(NC(=O)CC)SC`, the TGI was above 10 µM in the assay with DMS 114 small cell lung; above 10 µM in the assay with HOP-18 NSCLC; above 100 µM with KM20L2 colon; above 100 µM in the assay with LXFL 529 NSCLC; above 100 µM in the assay with M19-MEL melanoma; above 100 µM with RXF-631 renal. The compound also gave a TGI in the assay on SNB-78 CNS above 10 µM. The GI50 in the assay with KM20L2 colon, in the assay with LXFL 529 NSCLC, in the assay with M19-MEL melanoma and with RXF-631 renal was above 100 µM in each case.
